Measured values: patent publication US6680025B2, “Device and method for photoactivation” (Cerus Corporation, priority 1989, dated 2004)
In brackets after ≈: the same amount, converted by molar mass.

Assays:
[1] = Solubility of photoreactive compounds in 1×TE; assay type: physicochemical; settings: excess compound heated 50-70° C., stirred at room temperature, filtered, optical density
Description: The solubilities of AMIP, AMDMIP, DMIP, MIP and isopsoralen (IP) were determined experimentally according to the scheme set forth in FIG. 5. To perform the solubility measurement, it was first necessary to establish known optical densities for a 1 μg/ml solution of each compound. These were determined by preparing either ethanolic or aqueous stocks of each compound at known concentrations in 1×TE, then measuring the optical density of each solution. From this information, the absorption of a 1 μg/ml solution was computed. Alternatively, the extinction coefficient may be thus determined and used in the same fashion. In this manner, the following absorption data was collected:
Following this step, undissolved compound was removed by filtration using a 0.2 u nylon-66 syringe filter (Arco LC13; Gelman). The concentration of the remaining soluble compound was then determined by measuring the optical density of the filtrate and computing the solubility from the known optical density of a 1 μg/ml solution of that compound. The solubility of the compounds was thus determined to be as follows: […]

[2] = as reported by Dall'Acqua et al.; cited from earlier work
[3] = molecular target: Taq polymerase (Thermus aquaticus, UniProt P19821); experiment: Taq primer extension of 71-mer after random addition of compound or photoproduct; assay type: biochemical; settings: photobiotin 6×10^−6 M
Chain of Taq polymerase (P19821 whole entry): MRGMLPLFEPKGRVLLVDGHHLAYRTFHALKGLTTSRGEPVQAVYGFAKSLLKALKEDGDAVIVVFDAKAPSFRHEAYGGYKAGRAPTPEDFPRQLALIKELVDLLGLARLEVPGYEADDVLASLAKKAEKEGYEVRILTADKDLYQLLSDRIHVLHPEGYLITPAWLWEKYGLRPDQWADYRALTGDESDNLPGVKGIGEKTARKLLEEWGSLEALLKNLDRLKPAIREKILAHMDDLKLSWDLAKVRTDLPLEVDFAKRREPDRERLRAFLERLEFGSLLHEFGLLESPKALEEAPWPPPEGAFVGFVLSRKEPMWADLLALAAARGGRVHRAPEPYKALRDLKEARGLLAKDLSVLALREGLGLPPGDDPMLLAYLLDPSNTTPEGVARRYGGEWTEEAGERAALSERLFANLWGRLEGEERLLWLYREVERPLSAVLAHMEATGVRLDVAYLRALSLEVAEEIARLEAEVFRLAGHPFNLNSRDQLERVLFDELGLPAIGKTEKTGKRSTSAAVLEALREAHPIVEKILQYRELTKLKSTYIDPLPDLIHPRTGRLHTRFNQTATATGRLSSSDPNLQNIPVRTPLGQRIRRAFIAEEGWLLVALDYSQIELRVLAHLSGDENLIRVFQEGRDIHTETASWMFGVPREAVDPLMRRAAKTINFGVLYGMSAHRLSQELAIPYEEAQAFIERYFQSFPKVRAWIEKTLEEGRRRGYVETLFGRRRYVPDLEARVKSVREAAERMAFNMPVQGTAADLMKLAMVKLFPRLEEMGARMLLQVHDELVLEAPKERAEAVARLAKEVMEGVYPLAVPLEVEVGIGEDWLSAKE
Excerpt: In this experiment, the ability of AMIP, AMDMIP and MIF to block replication of 71-mer is investigated by randomly adding each compound to the 71-mer. Of course, addition may only be random in the sense that one or more adducts may be formed with any one strand of nucleic acid. The actual placement of the isopsoralen may be governed by preferential binding at particular sites (e.g. A:T). In addition to blockage by random adducts, photoproducts of the various isopsoralens may be providing an inhibitory effect. No attempt to separate the effects of photoproduct from the effects of covalent adducts on the 71-mer template was made in this series of experiments.
In these experiments, the 71-mer template (10^−9 M) was primed with ^32P-SK-39 (10^−8) and extended with Taq polymerase in a total volume of […]. The dNTP concentration was 200 μM. In the control samples, the 71-mer, the primer, and the dNTPs were mixed in Taq buffer in a volume of 18 p1. These samples were initially denatured at 95° C. for 5 minutes, followed by equilibration at 55° C. for 3 minutes. Taq enzyme was then added (0.5 units) and the extension reaction was carried out for 5 minutes at 55° C. The reaction was stopped by making the solution 10 mM in EDTA. In another set of samples, the 71-mer in 10 μl was mixed with either AMIP (200 μg/ml), AMDMIP (200 μg/ml), or MIP (60 μg/ml). Half of these samples were irradiated for 15 minutes on the CE-I device at 25° C. The other half was kept in the dark as controls. These samples were then mixed with the primer and dNTPs as before, and were subjected to the same thermal profile and extension reactions as the samples that were described earlier. The results were examined by PAGE. The extended product bands were identified by autoradiography, excised and counted (data not shown). […]
71-mer was made up in Taq buffer. Samples were prepared as follows: 1) dark control samples were not subjected to activating light; 2) 10 μl samples of the 71-mer (2×10^−9 M) were irradiated in the presence of 200 μg/ml AMDMIP, and 3) 10 μl samples of a 200 μg/ml solution of AMDMIP were irradiated in the absence of the 71-mer target. All irradiations were carried out with the CE-I device at 25° C. After preparing the above samples, unirradiated AMDMIP was added to one set of the dark control samples. Another set of dark controls received irradiated AMDMIP. ^32P-SK-39 primer and dNTPs were then added to all samples and the volume was adjusted to 18 μl. These samples were denatured at 95° C. for 5 minutes, followed by equilibration at 55° C. for 3 minutes. Taq polymerase was then added and the extension reaction was carried out for 5 minutes. The reaction was stopped by bringing the samples to 10 mM in EDTA. The final concentrations of all reagents during the extension reactions were: […]

[4] = system: HIV 115-mer; experiment: PCR with pre-irradiated photobiotin or monoazide ethidium chloride; assay type: biochemical
Description: In this experiment, photobiotin and monoazide ethidium chloride were tested as PCR sterilization reagents. The temporal steps were performed to examine photoproduct effects (if any). Solutions of photobiotin and monoazide ethidium chloride were made up in 1×Taq buffer. […] Each compound solution was divided into two parts: One part was irradiated under a GE sunlamp through a pyrex filter (300nm cut-off); the other half was irradiated under a GE sunlamp through a 2.9 M NaNO2 liquid filter (400 nm cut-off). Irradiations were carried out on ice for 15 minutes. After irradiation, aliquots of each tube were carried over into tubes containing PCR reagents and target (HIV 115-mer); PCR was then carried out for 30 cycles in the presence of α-^32P-dCTP. After amplification aliquots were analyzed on 12% acrylamide/8M urea gels.

[5] = system: DNA polymerase I from E. coli. B; settings: covalently bound compound; cited from earlier work
[6] = system: PCR'd MACS 1555 target; experiment: Inhibition of PCR by non-psoralen compounds in the absence of light; assay type: biochemical
Excerpt: The compounds tested were the following: 1) ethidium bromide (a Phenanthridine, see Table 1), 2) xylene cylanol (an Organic Dye, see Table 1), 3) bromphenol blue (an Organic Dye, see Table 1), 4) coumarin and 5) methylene blue (a Phenazathionium Salt, see Table 1).
A separate experiment examined PCR inhibition with coumarin and methylene blue in the absence of light. The following concentrations of methylene blue were tried: 4.3×10^−2, 4.3×10^−3, 4.3×10^−4 and 4.3×10^−5 M. Concentrations of coumarin tried included: 7×10^−3, 7×10^−4, 7×10^−5 and 7×10^−6 M. Compound was added to PCR tube containing α-^32P-dCTP and target (1 μl […].; PCR'd MACS 1555 per assay-point). PCR was carried out for 30×cycles. Samples were loaded onto a 12%/8 M urea gel.

[7] = system: human placental DNA; experiment: PCR in presence of AMDMIP and DMSO co-solvent; assay type: biochemical; settings: no AMDMIP, 0% DMSO gave 139,000
Description: In this example, the effect of DMSO on PCR amplification in the presence of high concentrations of sterilizing compound (AMDMIP) was investigated. Samples were prepared for PCR which contained 1 μg of human placental DNA either with or without (unirradiated) AMDMIP (200 μg/ml). The samples were amplified 30 cycles under standard PCR conditions in the presence of 0%, 1%, 5% or 10% DMSO. The reaction mix contained α-^32P-dCTP. Following amplification, the samples were analyzed by PAGE (data not shown).

[8] = system: Taq I DNA polymerase; experiment: Primer extension on site-specific monoadducted 71-mer, Taq polymerase; assay type: biochemical, Thermus aquaticus; settings: 55° C., single extension
Description: In this experiment, monoadducted 71-mers (as well as unmodified 71-mers) were used in template-dependent enzymatic extension. AMIP, AMDMIP, and MIP 71-mer monoadducts were made as in Example 42. Extension was carried out as in Example 43 except that in this experiment, Taq I DNA polymerase, a thermostable DNA polymerase isolated from Thermus aquaticus (Stratagene, Inc., La Jolla, Calif.) was assessed for its ability to read past isopsoralens.
The reaction mixture was in 80 μl total volume and comprised 1×Taq buffer, 200 μM each of dNTP's, 0.05 units of Taq per μl of reaction volume; 1×10^−9 M in 71-mer MA; 1×10^−8 M in ^32P-labelled SK-39. Each reaction was set up with everything except Taq polymerase. The samples were initially heated to 95° C. for 5 mins, then incubated at 55° C. for 3 mins. The extension reaction was initiated by addition of Tas polymerase. At the indicated time points (0.5, 1.0, 5.0 mins), 20 μl of the reaction mix was removed to a tube containing 1 μl of 0.5 M EDTA to stop the reaction. All products were analyzed on a 20% polyacrylamide, 7 M urea gel followed by autoradiography.
This experiment investigated whether blocking of Tag polymerase by monoadducts is complete or whether monoadducts can be bypassed by the enzyme. In order to view the process of bypass syrthesis, it is necessary to cycle the extension reaction of the primer with the 71-mer templates. Cycling in this case consists of mixing the primer with the 71-mer template, adding Taq polymerase and appropriate reagents, extending, heating to induce strand separation, reannealing of the primer to the 71-mer template, extending again, and subsequent stand separation. This process can be repeated as necessary. During this process, only the complement of the 71-mer template is being synthesized. It is accumulating in a linear fashion with the number of thermal cycles (in contrast to PCR where both strands are being synthesized and accumulate geometrically).
The templates and reaction conditions were as in Example 44 above except that three samples were used for each monoadduct and each sample was tested under different conditions:
Samples (1): one sample for each monoadduct was used to carry out extension at 55° C. as in Example 43;
Samples (2): one sample for each monoadduct was used to carry out extension by the following series of steps: denaturing at 95° C.; incubating for 30 seconds at 55° C.; adding Taq polymerase for 3 minutes at 55° C.; cooling the reaction for 1 minute at 7° C.; stopping the reaction with EDTA for one minute at 95° C.
Samples (3): one sample for each monoadduct was used to carry out extension by repeating the following series of steps nine times: denaturing at 95° C.; incubating for 30 seconds at 55° C.; adding Taq polymerase for 3 minutes at 55° C.; cooling the reaction for 1 minute at 7° C. At the end, the reaction is stopped with EDTA for one minute at 95° C.
To investigate this question further, a new 5-MIP monoadducted 71-mer was prepared by repurification of the HPLC purified 5-MIP ronoadducted 15-mer by PAGE. In this way, more of the non-monoadducted 15-mer was removed prior to ligation. The purified 71-mer was then used as template in an extension experiment as described in Example 45. After 10 cycles, there was still evidence of extension product (FIG. 34).
Monoadducted 71-mer was constructed as described, but for HMT. Extension was carried out and analyzed as before on PAGE. […] Full length 71-mer is not made and a shorter strand corresponding to the position of the HMT adduct was made.

[9] = system: E. coli polymerase I; settings: cited from earlier work

With `Cc1cc2c(ccc3c(C)cc(=O)oc32)o1` [DMIP, 4,5′-Dimethylisopsoralen] as the compound, how does the “Solubility in 1 × TE” value [1] read?
The value was “nd** (nd = not detectable (solubility was less than 1 μg/ml))”.

What about the maximum aqueous solubility [2] of the same compound?
The maximum aqueous solubility was 8 µg/mL.

Which “extension of 71-mer, dark control” value ([3]; monoazide ethidium 1.4×10^−3 M, kept in the dark) does the source give for `CC[n+]1c(-c2ccccc2)c2cc(N=[N+]=[N-])ccc2c2ccc(N)cc21` [monoazide ethidium chloride, reference compound] here?
The value was “inhibition of extension”.

What about the “inhibition of PCR by pre-irradiated compound” value ([4]; 3×10^−6 M to 3×10^−10 M, GE sunlamp 15 minutes on ice, 30 cycles) of the same compound?
The value was “does not inhibit PCR”.

Which “loss of template activity of modified DNA” value [5] does the source give for `COc1cc(OC)c2ccc(=O)oc2c1` [DMC, 5,7-dimethoxycoumarin] here?
Its value is 50%.

Which “concentrations that inhibited PCR in the absence of light” value ([6]; tested 4.3×10^−2 to 4.3×10^−5 M, 30 cycles) does the source give for `CN(C)c1ccc2nc3ccc(=[N+](C)C)cc-3sc2c1` [methylene blue] here?
Its value is “above 4.3×10^−5 M”.

What does the source list for `C[S+](C)[O-]` [DMSO, dimethyl sulfoxide]?
product band CPM (average of duplicate samples) ([7]; 1% DMSO): 137,000 CPM; product band CPM (average of duplicate samples) ([7]; 5% DMSO): 94,000 CPM; product band CPM (average of duplicate samples) ([7]; 10% DMSO): 76,000 CPM

For `COc1c2occc2cc2ccc(=O)oc12` [Compound 8-MOP, 8-methoxypsoralen], which “loss of template activity of modified DNA” value [5] is on record?
The value was 97%.

For `CN(CCCNC(=O)CCCC[C@@H]1SC[C@@H]2NC(=O)N[C@@H]21)CCCNc1ccc(N=[N+]=[N-])cc1[N+](=O)[O-]` [photobiotin, reference compound], which “extension of 71-mer after irradiation with compound” value ([3]; GE sunlamp 15 minutes on ice) is on record?
Its value is “inhibition only after irradiation”.

And the “concentration of pre-irradiated compound that shut down PCR” value ([4]; range 7×10^−4 M to 7×10^−10 M, 115-mer amplified at all lower concentrations)?
Its value is 700 µM.

With `O=c1ccc2ccc3occc3c2o1` [IP, isopsoralen, reference compound] as the compound, how does the solubility ([1]; 1×TE buffer, aqueous buffer, thermodynamic from solid) read?
Its solubility is 2 µg/mL (≈ 10.7 µM).

Which “Taq polymerase extension on 71-mer monoadduct template” value [8] does the source give for `Cc1oc2c(C)c3oc(=O)cc(C)c3cc2c1CO` [HMT, 4′-hydroxymethyl-4,5′,8-trimethylpsoralen] here?
The value was “stop Tag polymerase”.

What about the “inhibition of polymerase by covalently bound monoadducts” value ([9]; nick-translating a double-stranded template) of the same compound?
Its value is “not inhibited”.

What about the “inhibition of polymerase by monoadducts” value ([9]; single-stranded bacteriophage DNA template) of the same compound?
The value was “inhibited”.

With `O=c1ccc2ccccc2o1` [Coumarin, coumarin] as the compound, how does the “inhibition of PCR in the absence of light” value ([6]; dark control, coumarin 7×10^−3 to 7×10^−6 M) read?
The value was “did not inhibit PCR at any of the concentrations tested”.
